Where “and” joins values, the source holds several entries; their conditions need not be identical. Identical values can stand only once.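 Growth conditions: 96-well plates. Treatment: test compound, 48 hours, 5 concentrations. Analysis: linear interpolation between bracketing concentrations; unreached endpoints set to highest concentration. GI50: concentration for 50% inhibition of growth. TGI: total growth inhibition.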
Columns and labels:
Assay in all cases: NCI anticancer screen, dose series, 48 h
MCF7 breast = test system: MCF7 breast
EKVX NSCLC = test system: EKVX NSCLC
HCT-15 colon = test system: HCT-15 colon
NCI-H522 lung = test system: NCI-H522 lung
HCT-116 colon = test system: HCT-116 colon
SK-MEL-28 melanoma = test system: SK-MEL-28 melanoma
SR leukemia = test system: SR leukemia
CAKI-1 renal = test system: CAKI-1 renal
ACHN renal = test system: ACHN renal
SNB-19 CNS = test system: SNB-19 CNS

| Structure (SMILES) | GI50 (MCF7 breast) | TGI (MCF7 breast) | GI50 (EKVX NSCLC) | TGI (EKVX NSCLC) | GI50 (HCT-15 colon) | TGI (HCT-15 colon) | GI50 (NCI-H522 lung) | TGI (NCI-H522 lung) | GI50 (HCT-116 colon) | TGI (HCT-116 colon) | GI50 (SK-MEL-28 melanoma) | TGI (SK-MEL-28 melanoma) | GI50 (SR leukemia) | TGI (SR leukemia) | GI50 (CAKI-1 renal) | TGI (CAKI-1 renal) | GI50 (ACHN renal) | TGI (ACHN renal) | GI50 (SNB-19 CNS) | TGI (SNB-19 CNS) |
| --- | --- | --- | --- | --- | --- | --- | --- | --- | --- | --- | --- | --- | --- | --- | --- | --- | --- | --- | --- | --- |
| N#CSc1c[nH]c2cccc(/C=C/C(=O)/C=C(O)/C=C/c3cccc4[nH]cc(SC#N)c34)c12 | 0.254 µM | 1.45 µM | 0.285 µM | 2.13 µM | 0.186 µM | 0.895 µM | 0.093 µM | 0.47 µM | 0.109 µM | 0.421 µM | 0.495 µM | 1.15 µM | 0.129 µM | > 33.3 µM | 0.609 µM | 1.56 µM | 0.351 µM | 1.04 µM | 0.649 µM | 3.2 µM |
| CN(C)c1ccc(-c2cc(-c3cccc(NS(C)(=O)=O)c3)nc(N)c2C#N)cc1 | 0.238 µM | 17.9 µM | 0.133 µM | > 63.8 µM | 0.0362 µM | 11.8 µM | < 0.013 µM | 1.21 µM | 0.0404 µM | 2.19 µM | 0.0508 µM | 35.1 µM | 0.0359 µM | 26.7 µM | 0.0348 µM | 15.1 µM | 0.067 µM | 23.3 µM | 0.0526 µM | > 48.9 µM |
| COC(=O)[C@@H](C)C[C@H](Cc1ccccc1)NC(=O)c1nc([C@@H](C[C@H](C(C)C)N(C)C(=O)[C@@H](NC(=O)[C@H]2CC(=O)CCN2C)C(C)C)OC(C)=O)sc1C(C)C | 0.0427 µM | > 16.7 µM | 0.953 µM | > 16.7 µM | 0.524 µM | > 16.7 µM | 0.0549 µM | – | 0.169 µM | 3.04 µM | 0.524 µM | > 16.7 µM | 0.021 µM | > 16.7 µM | 0.499 µM | > 16.7 µM | 0.794 µM | > 16.7 µM | 0.183 µM | > 16.7 µM |
| c1c[nH]c(CN2CCN(Cc3ncc[nH]3)CC2)n1 | – | > 100 µM | – | > 100 µM | – | > 100 µM | – | > 100 µM | – | > 100 µM | – | > 100 µM | – | > 100 µM | – | > 100 µM | – | > 100 µM | – | > 100 µM |
| Nc1c2ccccc2nc2ccccc12 | 1.62 µM and 3.02 µM | 9.14 µM and 10.8 µM | 1.78 µM and 3.46 µM | – | 1.95 µM and 2.27 µM | 11.1 µM and 7.23 µM | 1.15 µM and 3.03 µM | 2.63 µM and 10.1 µM | 0.702 µM and 2.17 µM | 8.31 µM and 10.5 µM | 1.89 µM and 3.69 µM | 3.92 µM and 13.7 µM | 0.855 µM and 2.78 µM | 6.84 µM and 16.6 µM | 1.96 µM and 2.11 µM | 5.96 µM | 0.669 µM and 1.89 µM | 8.61 µM and 7.19 µM | 1.82 µM and 3.61 µM | 12.9 µM and 20.7 µM |
| CCn1nc(C#Cc2c(C)ccc3c(Nc4ccc(Cl)cc4)nccc23)c2c(N)ncnc21 | 2.49 µM | > 100 µM | 7.4 µM | > 100 µM | 3.46 µM | > 100 µM | 2.39 µM | 86.9 µM | 2.11 µM | > 100 µM | 3.36 µM | > 100 µM | 1.01 µM | > 100 µM | 4.78 µM | > 100 µM | 5.31 µM | > 100 µM | 4.93 µM | > 100 µM |
| O=C(c1ccco1)c1c(C(F)(F)F)n([O-])c2cc(Cl)c(Cl)cc2[n+]1=O | 0.123 µM | 0.452 µM | 0.887 µM | 1.86 µM | 0.233 µM | 0.654 µM | 0.202 µM | 1.33 µM | 0.269 µM | 0.921 µM | 2.97 µM | 6.45 µM | 0.0497 µM | 50 µM | 0.434 µM | 1.24 µM | 0.443 µM | 1.11 µM | 6.41 µM | 14.8 µM |
| CC(=O)Nc1ccc(S(=O)(=O)N2C(=O)CCC2C(=O)Nc2ccccc2)cc1 (stereo not given) | 0.73 µM | 14.7 µM | – | – | 0.293 µM | 14.8 µM | 0.491 µM | 6.27 µM | 0.389 µM | 20 µM | 1.79 µM | 18.1 µM | 0.913 µM | 12.1 µM | 0.46 µM | 17.5 µM | 0.241 µM | 14.3 µM | 1.74 µM | 19.2 µM |
| Nc1ncnc2c1ncn2C1SC(CO)C(O)C1O (stereo not given) | 3.21 µM | 31.6 µM | – | – | 3.81 µM | 31.8 µM | 40 µM | > 100 µM | 13.5 µM | 50.3 µM | 56.5 µM | > 100 µM | 12.5 µM | 45.2 µM | 29.5 µM | > 100 µM | 31.8 µM | > 100 µM | 26 µM | 82.8 µM |
| COc1cc2nc(NC3CCC3)nc(NC3CCN(C(C)C)CC3)c2cc1OC | 2.96 µM | 13 µM | 4.65 µM | 23.4 µM | 2.16 µM | 5.15 µM | 1.96 µM | 4.52 µM | 1.78 µM | 4.39 µM | 1.94 µM | 3.66 µM | 0.631 µM | 3.33 µM | 1.59 µM | 3.17 µM | 2.7 µM | 7.4 µM | – | – |
| N/C(=N\O)c1cn(C2OC(CO)C(O)C2O)c2ncnc(N)c12 (stereo not given) | 0.056 µM | 1.07 µM | – | – | 0.133 µM | > 47.8 µM | 0.157 µM | 0.401 µM | 0.0633 µM | > 100 µM | 0.127 µM | 0.382 µM | 0.0876 µM | 14.8 µM | 0.132 µM | 13.1 µM | 0.0764 µM | > 35.9 µM | 0.301 µM | > 100 µM |
| O=C(N=Nc1c(O)[nH]c2c(Cl)cc(Cl)cc12)C(=O)Nc1cccc(C(F)(F)F)c1 | – | > 100 µM | – | > 100 µM | – | > 100 µM | – | – | – | > 100 µM | – | > 100 µM | – | > 100 µM | – | > 100 µM | – | > 100 µM | – | > 100 µM |
| CNC(=S)N/N=C/CSC/C=N/NC(=S)NC | 1.85 µM | > 100 µM | – | – | 34.5 µM | > 100 µM | > 100 µM | > 100 µM | 8.33 µM | > 100 µM | > 100 µM | > 100 µM | 0.799 µM | > 100 µM | > 100 µM | > 100 µM | > 100 µM | > 100 µM | > 100 µM | > 100 µM |
| CCN(CC)CCCC(C)Nc1ccnc2cc(OC)ccc12 (stereo not given) | > 100 µM | > 100 µM | 44.9 µM | > 100 µM | 37.5 µM | > 100 µM | 17.9 µM | 37.4 µM | 29.2 µM | 46 µM | – | – | 24.1 µM | > 100 µM | 19.6 µM | 44.4 µM | 39.4 µM | > 100 µM | 22.4 µM | 53.3 µM |

From PubChem BioAssay (NCI)
